Laboratory results published in PubChem BioAssay AID624425 (The Scripps Research Institute Molecular Screening Center, 2012).

The molecules below were run against Serine/threonine-protein phosphatase 5 (Homo sapiens) (UniProt P53041) (assay: PP5 catalytic domain inhibition IC50 – biochemical, fluorescence, round 5, powder samples, dose response (AID 624425)). Details: purified PP5c, OMFP dephosphorylation.
Chain of Serine/threonine-protein phosphatase 5 (Homo sapiens) (P53041 whole entry, looked up, the tested form may be a part): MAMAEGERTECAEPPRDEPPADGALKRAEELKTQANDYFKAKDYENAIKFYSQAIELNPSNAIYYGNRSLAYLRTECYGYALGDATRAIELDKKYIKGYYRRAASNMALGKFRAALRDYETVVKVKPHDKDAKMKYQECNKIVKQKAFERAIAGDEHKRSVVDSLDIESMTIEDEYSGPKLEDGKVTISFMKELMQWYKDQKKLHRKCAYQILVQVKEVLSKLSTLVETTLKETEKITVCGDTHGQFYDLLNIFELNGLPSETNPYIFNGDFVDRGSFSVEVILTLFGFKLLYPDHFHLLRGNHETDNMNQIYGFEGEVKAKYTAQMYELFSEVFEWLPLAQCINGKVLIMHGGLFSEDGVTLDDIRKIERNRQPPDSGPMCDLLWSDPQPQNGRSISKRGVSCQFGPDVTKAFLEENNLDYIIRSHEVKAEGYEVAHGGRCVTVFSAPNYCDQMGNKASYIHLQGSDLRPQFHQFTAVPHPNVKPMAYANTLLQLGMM
`O=C(O)c1n[nH]nc1-c1cccc(F)c1` gave an IC50 of 17.8 µM. `O=C(O)c1n[nH]nc1-c1ccc(F)cc1` gave an IC50 of 24.1 µM. Molecule `O=C(O)c1n[nH]nc1-c1ccccc1F` has an IC50 of 7.75 µM. `COc1ccccc1-c1n[nH]nc1C(=O)O` showed an IC50 of 6 µM. `COc1cccc(-c2n[nH]nc2C(=O)O)c1` was tested, and the IC50 was 10.9 µM. In the case of `COc1ccc(-c2n[nH]nc2C(=O)O)cc1`, the IC50 is reported as 23.1 µM. For `O=C(O)c1n[nH]nc1-c1ccccc1O`, the IC50 was 7.74 µM.
